The target of the assay is T1, angiotensin-converting enzyme (ACE) (Homo sapiens, UniProt P12821).
T1 construct: purchased Sigma-Aldrich CS0002
The assay can be described thus: ACE inhibition assay (ACE Activity Assay kit, fluorogenic substrate). It is filed as biochemical. The protocol: ACE inhibitory activity was evaluated using the ACE Activity Assay test (Sigma-Aldrich CS0002, Saint Louis, MI, USA). This assay is based on the hydrolysis of angiotensin I by ACE to yield active angiotensin II. This test uses a synthetic fluorogenic peptide as the substrate, and the resulting fluorescence is proportional to ACE activity. Briefly, all reagents were diluted in the assay buffer, according to the manufacturer’s instructions. A total of 10 µL of peptide sample and positive control (captopril PHR1307, Sigma-Aldrich, Saint Louis, MI, USA), diluted in assay buffer at five different concentrations, and negative control (assay buffer) were pipetted into the wells of a 96-well black opaque plate. Then, 40 µL of ACE, provided in the kit, was added to sample and control wells. Sample blanks consisted of 50 µL of assay buffer. A standard curve was prepared in 100 µL assay buffer per well ranging from 0 to 8 nmol for calculating enzymatic activity. Subsequently, 50 µL of fluorogenic substrate warmed to 37 °C was added to experimental, control and blank sample wells. The reaction was carried out at 37 °C and fluorescence was read every minute for 5 min in a microplate reader (Biotek Synergy HTX, Winooski, VT, USA). The absorbance of excitation and emission were set at 320 nm and 405 nm, respectively. All determinations were done in duplicate. Linear regressions were determined to calculate the enzymatic activity for each sample dose.
One unit is defined as the amount of enzyme that releases one nmol of fluorescent substrate in 1 min at 37 °C. The results were expressed as milliunits of enzyme (mU). Finally, the IC50 of each peptide sample and captopril was determined using regression analysis of the corresponding dose–response curves. […] This value was expressed as µM.

Setting [1] is: fluorogenic substrate, 37 °C, fluorescence (ex 320/em 405 nm) every minute for 5 min, five concentrations, value ± SD, n = 2, read-out: IC50 for ACE inhibition.
Setting [2] is: own IC50 values converted to mg/mL for comparison with the literature, read-out: IC50 for ACE inhibition expressed in mg/mL (converted).

Where two headings read alike, the source gives them in different places. No end group written: not given here.

T1 sequence (P12821 30-1306, species assumed): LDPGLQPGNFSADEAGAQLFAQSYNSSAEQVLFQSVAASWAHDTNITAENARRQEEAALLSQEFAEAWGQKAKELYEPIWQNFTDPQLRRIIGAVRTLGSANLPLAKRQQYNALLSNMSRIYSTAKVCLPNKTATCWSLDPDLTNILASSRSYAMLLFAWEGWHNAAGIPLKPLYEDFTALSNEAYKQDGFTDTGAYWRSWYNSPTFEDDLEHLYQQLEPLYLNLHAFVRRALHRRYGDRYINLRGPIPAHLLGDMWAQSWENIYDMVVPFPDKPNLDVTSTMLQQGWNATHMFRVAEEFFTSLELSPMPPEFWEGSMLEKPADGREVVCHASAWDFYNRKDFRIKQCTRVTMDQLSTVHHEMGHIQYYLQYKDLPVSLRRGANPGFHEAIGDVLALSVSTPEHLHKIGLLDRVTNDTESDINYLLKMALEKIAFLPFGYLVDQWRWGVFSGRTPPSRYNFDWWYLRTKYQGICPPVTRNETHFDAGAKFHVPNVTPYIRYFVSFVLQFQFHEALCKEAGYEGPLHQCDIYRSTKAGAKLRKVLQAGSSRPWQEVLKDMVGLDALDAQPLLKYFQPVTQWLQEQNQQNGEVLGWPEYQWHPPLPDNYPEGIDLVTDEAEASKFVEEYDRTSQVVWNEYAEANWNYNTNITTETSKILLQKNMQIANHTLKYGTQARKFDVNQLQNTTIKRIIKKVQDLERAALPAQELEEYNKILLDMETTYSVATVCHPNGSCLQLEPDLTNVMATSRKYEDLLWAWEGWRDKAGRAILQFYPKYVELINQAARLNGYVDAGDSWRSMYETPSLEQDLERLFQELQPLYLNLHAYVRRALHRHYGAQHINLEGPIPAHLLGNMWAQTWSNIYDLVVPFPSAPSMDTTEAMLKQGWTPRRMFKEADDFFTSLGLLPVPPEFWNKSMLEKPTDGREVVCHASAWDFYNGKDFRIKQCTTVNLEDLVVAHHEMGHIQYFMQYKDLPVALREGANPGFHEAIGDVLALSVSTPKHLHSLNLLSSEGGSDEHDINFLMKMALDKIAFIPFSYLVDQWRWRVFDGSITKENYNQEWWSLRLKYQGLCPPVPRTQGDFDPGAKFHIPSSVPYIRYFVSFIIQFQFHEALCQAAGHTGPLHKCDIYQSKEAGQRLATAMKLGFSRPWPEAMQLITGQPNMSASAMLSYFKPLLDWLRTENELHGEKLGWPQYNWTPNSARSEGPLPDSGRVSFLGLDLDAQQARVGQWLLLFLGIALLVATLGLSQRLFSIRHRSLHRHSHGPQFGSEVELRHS

With AYLQAQQLLPFNQLVRSPAA-NH2 [19ZP3], the IC50 under setting [1] worked out at 202 ± 0.63 µM and the IC50 under setting [2] was 202 µM.
Taken in the same sequence, the figures for FNQLAALNSAAYLQQQQLLPFSQLA-NH2 [19ZP1] were 14.19 ± 0.12 µM and 14.4 µM.
On the same counts, the results for QLADVSPAAFLTQQQLLPFYLHAM-NH2 [19ZP2] are 174 ± 49.6 µM and 174 µM.

The values are drawn from PMC7699256, “In Silico Analysis and In Vitro Characterization of the Bioactive Profile of Three Novel Peptides Identified from 19 kDa α-Zein Sequences of Maize” (Molecules, 2020).
